In data set [1] the test system is Escherichia coli. In words: Antibacterial activity against Escherichia coli KCTC 1682 strain assessed as bacterial growth inhibition measured at 18 to 24 hrs by microdilution assay. Type of data set: functional. The settings on record: time 18-24 hrs.
Data set [2] relates to Pseudomonas aeruginosa. Briefly: Antibacterial activity against Pseudomonas aeruginosa KCTC 1637 strain assessed as bacterial growth inhibition measured at 18 to 24 hrs by microdilution assay. Format: functional. The settings on record: time 18-24 hrs.
In data set [3] the test system is Staphylococcus epidermidis. In words: Antibacterial activity against Staphylococcus epidermidis KCTC 1917 strain assessed as bacterial growth inhibition measured at 18 to 24 hrs by microdilution assay. Type of data set: functional. The conditions noted are these: time 18-24 hrs.
The test system of data set [4] is Staphylococcus aureus. Briefly: Antibacterial activity against Staphylococcus aureus KCTC 1621 strain assessed as bacterial growth inhibition measured at 18 to 24 hrs by microdilution assay. The settings on record: time 18-24 hrs. Type of data set: functional. (In general: Broth dilution looks for growth in wells or tubes with falling amounts of substance.)
In data set [5] the test system is Erythrocyte. Briefly: Hemolytic activity in sheep RBC assessed as minimal hemolytic concentration causing 10% hemolysis incubated for 1 hr by ELISA. Type of data set: toxicity, cell-based, Ovis aries.
The subject of data set [6] is Staphylococcus aureus. Briefly: Antibacterial activity against methicillin-resistant Staphylococcus aureus CCARM 3089 strain assessed as bacterial growth inhibition measured at 18 to 24 hrs by microdilution assay. The conditions noted are these: time 18-24 hrs. Type of data set: functional.
Data set [7] concerns Staphylococcus aureus. In words: Antibacterial activity against methicillin-resistant Staphylococcus aureus CCARM 3090 strain assessed as bacterial growth inhibition measured at 18 to 24 hrs by microdilution assay. Type of data set: functional. The conditions noted are these: time 18-24 hrs.
The test system of data set [8] is Staphylococcus aureus. In words: Antibacterial activity against methicillin-resistant Staphylococcus aureus CCARM 3095 strain assessed as bacterial growth inhibition measured at 18 to 24 hrs by microdilution assay. Type of data set: functional. The conditions noted are these: time 18-24 hrs.
In data set [9] the test system is Pseudomonas aeruginosa. Briefly: Antibacterial activity against multidrug-resistant Pseudomonas aeruginosa CCARM 2095 strain assessed as bacterial growth inhibition measured at 18 to 24 hrs by microdilution assay. The conditions noted are these: time 18-24 hrs. Format: functional.
For data set [10], the system named is Pseudomonas aeruginosa. In words: Antibacterial activity against multidrug-resistant Pseudomonas aeruginosa CCARM 2109 strain assessed as bacterial growth inhibition measured at 18 to 24 hrs by microdilution assay. Format: functional. The conditions noted are these: time 18-24 hrs.
For data set [11], the system named is Enterococcus faecium. Briefly: Antibacterial activity against vancomycin-resistant Enterococcus faecium ATCC 51559 strain assessed as bacterial growth inhibition measured at 18 to 24 hrs by microdilution assay. The conditions noted are these: time 18-24 hrs. Type of data set: functional.
Data set [12] relates to Staphylococcus aureus. In words: Antibacterial activity against methicillin-resistant Staphylococcus aureus CCARM 3089 strain assessed as bacterial growth inhibition by checkerboard assay. Type of data set: functional.
For data set [13], the system named is Pseudomonas aeruginosa. Briefly: Synergistic antibacterial activity against multidrug-resistant Pseudomonas aeruginosa CCARM 2095 strain assessed as bacterial growth inhibition by checkerboard assay. Type of data set: functional.
For data set [14], the system named is Pseudomonas aeruginosa. In words: Additive antibacterial activity against multidrug-resistant Pseudomonas aeruginosa CCARM 2095 strain assessed as bacterial growth inhibition by checkerboard assay. Type of data set: functional.
Data set [15] concerns Pseudomonas aeruginosa. In words: Bactericidal activity against multidrug-resistant Pseudomonas aeruginosa CCARM 2095 measured after 24 hrs by time-kill kinetics assay. Type of data set: functional, organism-based.
Data set [16] concerns Pseudomonas aeruginosa. In words: Bacteriostatic activity against multidrug-resistant Pseudomonas aeruginosa CCARM 2095 measured after 24 hrs by time-kill kinetics assay. Format: functional, organism-based.

Converted amounts (≈) assume the structure as drawn. The source made the active and inactive calls. No cut-off for these calls is given here. A value given as a limit tells only on which side of the number the result lay.

Broadly, the MIC is the least concentration at which growth counts as inhibited. For the molecule `NCCCN(CCCN)c1nc(NCc2ccccc2)nc(N2CC(Cc3ccccc3)N(c3nc(NCc4ccc5ccccc5c4)nc(N(CCCN)CCCN)n3)CC2Cc2ccccc2)n1` (centres undefined), the MIC amounted to 9.4 µM (≈ 8.87 µg/mL) in [1], 18.7 µM (≈ 17.6 µg/mL) in [2], 4.7 µM (≈ 4.43 µg/mL) in data set [3] and 4.7 µM (≈ 4.43 µg/mL) in data set [4]. In data set [5], the MHC worked out at 189.5 µM.

For the molecule `N=C(N)NCCN(CCNC(=N)N)c1nc(NCc2ccccc2)nc(N2CC(Cc3ccccc3)N(c3nc(NCc4ccccc4)nc(N(CCNC(=N)N)CCNC(=N)N)n3)CC2Cc2ccccc2)n1` (centres undefined), the MIC in data set [1] is 8.7 µM (≈ 8.75 µg/mL); in data set [2], 8.7 µM (≈ 8.75 µg/mL); in [3], 4.4 µM (≈ 4.42 µg/mL); in data set [4] it was 4.4 µM (≈ 4.42 µg/mL). Besides, the MHC in data set [5] stood at 124.5 µM.

For `N=C(N)NCCNc1nc(NCCNC(=N)N)nc(N2CCN(c3nc(NCCNC(=N)N)nc(NCCNC(=N)N)n3)C(Cc3ccccc3)C2)n1` (centres undefined), the MIC in data set [1], in [2], in [3] and in data set [4] was 21.8 µM (≈ 16 µg/mL) throughout. Besides, in data set [5], the MHC was above 348.2 µM.

For `N=C(N)NCCCN(CCCNC(=N)N)c1nc(NCc2ccccc2)nc(N2CC(Cc3ccccc3)N(c3nc(NCc4ccccc4)nc(N(CCCNC(=N)N)CCCNC(=N)N)n3)CC2Cc2ccccc2)n1` (centres undefined), the MIC in data set [1] came to 16.5 µM (≈ 17.5 µg/mL); in data set [2], 8.2 µM (≈ 8.7 µg/mL); in data set [3], 4.1 µM (≈ 4.35 µg/mL); in [4], 4.4 µM (≈ 4.67 µg/mL). In addition, in [5], the MHC is 226.4 µM.

Take COLISTIN: the MIC in [6] is 27.7 µM; in data set [7] it was 27.7 µM; in data set [8], 13.8 µM; in data set [9] it was 55.4 µM; in [10] it was 27.7 µM; in data set [11] it was 13.8 µM. In addition, in data set [12], the minimal inhibitory concentration (MIC) turned out to be 512 µg/mL.

In the case of `NCCCNc1nc(NCCCN)nc(N2CC(Cc3ccccc3)N(c3nc(NCCCN)nc(NCCCN)n3)CC2Cc2ccccc2)n1` (centres undefined), the MIC came out at 11.2 µM (≈ 7.99 µg/mL) in data set [1], 22.4 µM (≈ 16 µg/mL) in data set [2], 11.2 µM (≈ 7.99 µg/mL) in [3] and 11.2 µM (≈ 7.99 µg/mL) in data set [4]. Further, the MHC in [5] was above 358.4 µM.

On to `N=C(N)NCCCCNc1nc(NCCCCN)nc(N2CCN(c3nc(NCCCCN)nc(NCCCCN)n3)CC2Cc2ccccc2)n1` (centres undefined), for which the MIC in data set [1] came out at 22.2 µM (≈ 16 µg/mL); in [2], 11.1 µM (≈ 8 µg/mL); in [3] it was 5.6 µM (≈ 4.04 µg/mL); in data set [4], 11.1 µM (≈ 8 µg/mL). Besides, the MHC in [5] was above 355.8 µM.

For `O=C(O)c1cn(C2CC2)c2cc(N3CCNCC3)c(F)cc2c1=O` [CIPROFLOXACIN], the MIC in [6] is above 6180 µM; in data set [7], above 6180 µM; in data set [8] it was above 6180 µM; in data set [9], 3090 µM (≈ 1020 µg/mL); in data set [10], above 6180 µM; in data set [11], 1550 µM (≈ 512 µg/mL). In addition, the values for the MIC in [13], in data set [14] and in [12] were 1020 µg/mL, 1020 µg/mL and 512 µg/mL, respectively. The result in data set [15] and in [16] was inactive.

As for `Cc1onc(-c2ccccc2)c1C(=O)N[C@@H]1C(=O)N2[C@@H]1SC(C)(C)[C@@H]2C(=O)O` [OXACILLIN], the MIC was 2550 µM (≈ 1020 µg/mL) in [6]; above 5100 µM in data set [7]; above 5100 µM in [8]; 5100 µM (≈ 2050 µg/mL) in data set [9]; 5100 µM (≈ 2050 µg/mL) in [10]; 2180 µM (≈ 873 µg/mL) in [11]. In addition, the MIC in [13], in [14] and in data set [12] was 1020 µg/mL each time. Moreover, the result in data set [15] and in [16] was inactive.

For `N=C(N)NCCCNc1nc(NCCCNC(=N)N)nc(N2CCN(c3nc(NCCCNC(=N)N)nc(NCCCNC(=N)N)n3)C(Cc3ccccc3)C2)n1` (centres undefined), the MIC in [1], in data set [2], in data set [3] and in [4] was 20.2 µM (≈ 16 µg/mL) throughout. Also, the MHC in data set [5] was above 322.6 µM.

Values taken from ChEMBL document CHEMBL5331051, “Cationic, amphipathic small molecules based on a triazine-piperazine-triazine scaffold as a new class of antimicrobial agents” (Eur J Med Chem, 2022).
